Results from EP0624163B1, “CYCLIC CALCITONIN DERIVATIVES AND METHOD FOR THEIR PRODUCTION” (Smithkline Beecham Farmaceutici S.p.A., priority 1992, dated 1998).

Test system: Male Sprague Dawley rats
Assay: Hypocalcaemic activity in rats (total serum calcium after i.v. injection)
Format: in vivo, rat
Settings: fasted rats, blood sampled one hour after dosing, VEHICLE 10.49 + 0.6
Experimental: The hypocalcaemic activity of compounds (I) can be determined as reported for example in J. Endocrinology, 33, 469 (1965).
Male Sprague Dawley rats, about 4 weeks old, were kept under fasting conditions for 24 hours. The compounds were dissolved with BSA buffer (0.1% bovine serum albumin on 0.1M acetate buffer pH 4.5) and injected by the i.v. route into the lateral tail vein at doses of 3-10-30-100 ng/Kg. One hour after the dosing blood was sampled from the tail or neck vessels, then the serum samples obtained.
The serum was diluted with 0.1% lanthanium chloride solution and the concentration of total calcium was determined by Atomic Absorption Spectrophotometry.

SMILES: CC(C)C[C@H](NC(=O)[C@H](CCCCN)NC(=O)CNC(=O)[C@H](CC(C)C)NC(=O)[C@@H](NC(=O)[C@@H]1CC#CCCC(=O)N[C@@H](CO)C(=O)N[C@@H](CC(N)=O)C(=O)N[C@@H](CC(C)C)C(=O)N[C@@H](CO)C(=O)N[C@@H]([C@@H](C)O)C(=O)N1)C(C)C)C(=O)N[C@@H](CO)C(=O)N[C@@H](CCC(N)=O)C(=O)N[C@@H](CCC(=O)O)C(=O)N[C@@H](CC(C)C)C(=O)N[C@@H](Cc1c[nH]cn1)C(=O)N[C@@H](CCCCN)C(=O)N[C@@H](CC(C)C)C(=O)N[C@@H](CCC(N)=O)C(=O)N[C@H](C(=O)N[C@@H](Cc1ccc(O)cc1)C(=O)N1CCC[C@H]1C(=O)N[C@@H](CCCNC(=N)N)C(=O)N[C@H](C(=O)N[C@@H](C)C(=O)N[C@H](C(=O)NCC(=O)N[C@@H](C)C(=O)NCC(=O)N[C@H](C(=O)N1CCC[C@H]1C(N)=O)[C@@H](C)O)C(C)C)[C@@H](C)O)[C@@H](C)O [Example 4]
- Total serum calcium; mean + S.D. (Dose 3 ng/kg i.v. (lateral tail vein)): 10.09±0.1 mg/100 ml
- Total serum calcium; mean + S.D. (Dose 10 ng/kg i.v. (lateral tail vein)): 8.85±0.25 mg/100 ml
- Total serum calcium; mean + S.D. (Dose 30 ng/kg i.v. (lateral tail vein)): 7.92±0.15 mg/100 ml
- Total serum calcium; mean + S.D. (Dose 100 ng/kg i.v. (lateral tail vein)): 7.66±0.18 mg/100 ml
